Fold change (FC) and inhibition data for three compounds are collected here from ChEMBL document CHEMBL5653631, “A Potent and Selective ULK1 Inhibitor Suppresses Autophagy and Sensitizes Cancer Cells to Nutrient Stress” (iScience, 2018).

Assay [1] deals with High affinity nerve growth factor receptor (Homo sapiens) (UniProt P04629). Briefly: Inhibition of human recombinant TRKA at 40 nM related to control ULK1.
The target in assay [2] is T1, Tyrosine-protein kinase JAK3 (Homo sapiens) (UniProt P52333).
T1 sequence (whole entry): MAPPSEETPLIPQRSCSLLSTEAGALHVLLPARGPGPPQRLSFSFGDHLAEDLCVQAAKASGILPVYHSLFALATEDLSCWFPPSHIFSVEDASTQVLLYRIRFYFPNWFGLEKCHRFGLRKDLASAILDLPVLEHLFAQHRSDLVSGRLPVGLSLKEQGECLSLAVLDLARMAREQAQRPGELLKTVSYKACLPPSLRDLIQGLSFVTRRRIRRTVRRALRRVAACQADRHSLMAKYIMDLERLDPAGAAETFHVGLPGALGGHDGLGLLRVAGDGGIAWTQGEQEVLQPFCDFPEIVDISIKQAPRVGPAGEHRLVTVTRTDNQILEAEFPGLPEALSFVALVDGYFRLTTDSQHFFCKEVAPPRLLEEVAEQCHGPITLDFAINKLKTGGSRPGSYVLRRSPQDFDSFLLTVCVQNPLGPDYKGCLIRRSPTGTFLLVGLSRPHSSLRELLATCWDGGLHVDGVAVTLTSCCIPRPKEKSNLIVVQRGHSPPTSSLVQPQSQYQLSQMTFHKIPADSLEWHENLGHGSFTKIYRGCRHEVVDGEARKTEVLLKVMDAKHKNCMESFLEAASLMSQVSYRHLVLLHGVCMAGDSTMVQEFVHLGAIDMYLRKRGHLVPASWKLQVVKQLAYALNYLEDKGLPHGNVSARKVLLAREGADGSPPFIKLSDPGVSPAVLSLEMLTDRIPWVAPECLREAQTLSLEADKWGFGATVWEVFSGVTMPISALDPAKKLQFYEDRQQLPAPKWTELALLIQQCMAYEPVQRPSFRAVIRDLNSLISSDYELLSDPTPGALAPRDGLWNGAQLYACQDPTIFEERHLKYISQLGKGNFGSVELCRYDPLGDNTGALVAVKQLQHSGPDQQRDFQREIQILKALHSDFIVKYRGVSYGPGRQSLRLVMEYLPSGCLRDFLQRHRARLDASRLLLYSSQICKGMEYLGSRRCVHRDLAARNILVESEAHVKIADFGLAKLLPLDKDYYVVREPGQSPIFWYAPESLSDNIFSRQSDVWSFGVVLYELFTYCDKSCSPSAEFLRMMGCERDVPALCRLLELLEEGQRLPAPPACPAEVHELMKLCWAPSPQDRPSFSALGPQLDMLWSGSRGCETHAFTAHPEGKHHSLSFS
Briefly: Inhibition of human recombinant JAK3 at 40 nM in presence of ATP by radiometric assay relative to control.

Assay [3] deals with T2, Dual specificity protein kinase TTK (Homo sapiens) (UniProt P33981).
T2 sequence (whole entry): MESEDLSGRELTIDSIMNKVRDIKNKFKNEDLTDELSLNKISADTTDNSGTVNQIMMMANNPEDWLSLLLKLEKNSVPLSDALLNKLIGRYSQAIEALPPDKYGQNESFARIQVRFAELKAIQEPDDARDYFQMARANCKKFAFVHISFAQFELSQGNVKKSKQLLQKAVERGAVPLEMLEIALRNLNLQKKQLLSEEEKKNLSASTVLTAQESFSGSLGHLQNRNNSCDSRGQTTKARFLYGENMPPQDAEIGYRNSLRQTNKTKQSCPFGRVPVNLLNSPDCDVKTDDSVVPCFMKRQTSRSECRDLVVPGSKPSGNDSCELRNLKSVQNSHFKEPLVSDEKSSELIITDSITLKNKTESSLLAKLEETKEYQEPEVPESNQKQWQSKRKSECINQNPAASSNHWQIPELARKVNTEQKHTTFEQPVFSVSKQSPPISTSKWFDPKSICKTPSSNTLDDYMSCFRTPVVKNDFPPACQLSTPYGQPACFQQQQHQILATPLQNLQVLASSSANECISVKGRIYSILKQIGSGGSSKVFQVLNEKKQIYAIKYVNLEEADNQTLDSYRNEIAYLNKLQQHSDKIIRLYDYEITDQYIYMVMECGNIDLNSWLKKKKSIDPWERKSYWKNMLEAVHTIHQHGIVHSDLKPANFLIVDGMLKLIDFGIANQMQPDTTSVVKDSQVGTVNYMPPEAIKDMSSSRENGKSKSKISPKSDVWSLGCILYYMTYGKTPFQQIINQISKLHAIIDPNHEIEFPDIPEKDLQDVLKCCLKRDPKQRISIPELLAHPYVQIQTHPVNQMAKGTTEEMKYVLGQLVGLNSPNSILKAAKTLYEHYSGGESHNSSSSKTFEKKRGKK
Briefly: Inhibition of human recombinant TTK at 500 nM in presence of ATP by radiometric assay relative to control.

Assay [4] addresses TGF-beta receptor type-2 (Homo sapiens) (UniProt P37173). Briefly: Inhibition of human recombinant TGFbR2 at 500 nM related to control ULK1.
Assay [5] addresses Fibroblast growth factor receptor 4 (Homo sapiens) (UniProt P22455). Briefly: Inhibition of human recombinant FGFR4 at 15 nM related to control ULK1.
For assay [6], the target named is T3, cGMP-dependent protein kinase 1 (Homo sapiens) (UniProt Q13976).
T3 sequence (whole entry): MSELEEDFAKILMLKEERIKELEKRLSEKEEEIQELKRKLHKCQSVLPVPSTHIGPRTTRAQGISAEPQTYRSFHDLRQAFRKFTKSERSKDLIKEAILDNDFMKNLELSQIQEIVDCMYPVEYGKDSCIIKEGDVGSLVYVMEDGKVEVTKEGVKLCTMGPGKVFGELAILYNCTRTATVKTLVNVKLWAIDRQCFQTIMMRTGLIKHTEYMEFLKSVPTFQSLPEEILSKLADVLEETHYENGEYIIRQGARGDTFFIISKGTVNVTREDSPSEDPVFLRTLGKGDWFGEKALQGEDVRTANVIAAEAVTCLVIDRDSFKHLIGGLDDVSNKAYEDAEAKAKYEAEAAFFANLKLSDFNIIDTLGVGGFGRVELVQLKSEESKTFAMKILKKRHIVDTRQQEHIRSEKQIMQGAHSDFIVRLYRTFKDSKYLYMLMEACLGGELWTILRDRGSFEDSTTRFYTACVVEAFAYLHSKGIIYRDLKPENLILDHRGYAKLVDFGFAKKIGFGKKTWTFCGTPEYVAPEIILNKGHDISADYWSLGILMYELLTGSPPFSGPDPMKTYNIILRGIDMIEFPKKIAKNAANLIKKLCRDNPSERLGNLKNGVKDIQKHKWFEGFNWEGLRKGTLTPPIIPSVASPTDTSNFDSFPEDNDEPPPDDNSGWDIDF
Briefly: Inhibition of human recombinant PKG1 at 15 nM in presence of ATP by radiometric assay relative to control.

Assay [7] addresses Mast/stem cell growth factor receptor Kit (Homo sapiens) (UniProt P10721). Briefly: Inhibition of human recombinant KIT at 15 nM in presence of ATP by radiometric assay relative to control.

Mast/stem cell growth factor receptor Kit (Homo sapiens), sequence (P10721 whole entry): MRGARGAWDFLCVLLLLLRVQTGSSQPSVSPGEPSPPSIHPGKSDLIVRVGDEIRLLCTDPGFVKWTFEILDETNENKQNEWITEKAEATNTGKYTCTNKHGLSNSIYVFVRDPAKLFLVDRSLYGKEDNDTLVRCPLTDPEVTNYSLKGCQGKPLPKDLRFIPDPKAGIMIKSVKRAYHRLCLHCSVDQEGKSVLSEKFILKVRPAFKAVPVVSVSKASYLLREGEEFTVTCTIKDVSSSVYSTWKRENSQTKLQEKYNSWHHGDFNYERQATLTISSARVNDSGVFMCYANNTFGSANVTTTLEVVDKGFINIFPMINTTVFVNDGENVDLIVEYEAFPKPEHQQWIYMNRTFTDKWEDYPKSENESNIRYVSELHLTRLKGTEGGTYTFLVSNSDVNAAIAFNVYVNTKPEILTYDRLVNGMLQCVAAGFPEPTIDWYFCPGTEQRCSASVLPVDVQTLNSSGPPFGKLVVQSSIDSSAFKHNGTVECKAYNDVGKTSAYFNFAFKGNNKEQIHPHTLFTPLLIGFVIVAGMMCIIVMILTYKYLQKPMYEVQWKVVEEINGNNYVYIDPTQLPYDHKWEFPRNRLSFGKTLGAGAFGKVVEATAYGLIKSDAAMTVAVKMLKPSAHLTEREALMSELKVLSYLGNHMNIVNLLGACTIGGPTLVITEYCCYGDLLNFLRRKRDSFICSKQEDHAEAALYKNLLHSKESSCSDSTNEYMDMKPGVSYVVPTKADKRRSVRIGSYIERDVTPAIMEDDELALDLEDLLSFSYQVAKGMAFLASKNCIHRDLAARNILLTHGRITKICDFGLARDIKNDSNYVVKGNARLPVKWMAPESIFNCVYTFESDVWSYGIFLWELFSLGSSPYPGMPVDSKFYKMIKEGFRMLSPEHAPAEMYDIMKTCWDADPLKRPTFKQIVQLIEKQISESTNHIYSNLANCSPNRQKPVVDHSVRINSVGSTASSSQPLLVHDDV
TGF-beta receptor type-2 (Homo sapiens), sequence (P37173 whole entry): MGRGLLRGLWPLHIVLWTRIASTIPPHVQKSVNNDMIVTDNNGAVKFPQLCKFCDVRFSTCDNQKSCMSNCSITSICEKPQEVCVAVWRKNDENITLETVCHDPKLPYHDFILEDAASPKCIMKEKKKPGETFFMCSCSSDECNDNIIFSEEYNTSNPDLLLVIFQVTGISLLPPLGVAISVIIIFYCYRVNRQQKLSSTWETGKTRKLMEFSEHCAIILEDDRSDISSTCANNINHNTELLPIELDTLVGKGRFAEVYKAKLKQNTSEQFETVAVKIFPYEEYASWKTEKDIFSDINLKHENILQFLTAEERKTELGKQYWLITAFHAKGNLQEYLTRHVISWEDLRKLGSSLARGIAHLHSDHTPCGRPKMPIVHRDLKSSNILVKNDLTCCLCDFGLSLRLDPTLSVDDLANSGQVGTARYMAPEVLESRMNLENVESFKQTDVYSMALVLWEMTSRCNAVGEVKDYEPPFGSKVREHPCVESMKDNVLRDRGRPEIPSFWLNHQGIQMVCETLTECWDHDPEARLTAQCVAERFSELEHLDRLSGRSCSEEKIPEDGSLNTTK
High affinity nerve growth factor receptor (Homo sapiens), sequence (P04629 33-796 limits assumed): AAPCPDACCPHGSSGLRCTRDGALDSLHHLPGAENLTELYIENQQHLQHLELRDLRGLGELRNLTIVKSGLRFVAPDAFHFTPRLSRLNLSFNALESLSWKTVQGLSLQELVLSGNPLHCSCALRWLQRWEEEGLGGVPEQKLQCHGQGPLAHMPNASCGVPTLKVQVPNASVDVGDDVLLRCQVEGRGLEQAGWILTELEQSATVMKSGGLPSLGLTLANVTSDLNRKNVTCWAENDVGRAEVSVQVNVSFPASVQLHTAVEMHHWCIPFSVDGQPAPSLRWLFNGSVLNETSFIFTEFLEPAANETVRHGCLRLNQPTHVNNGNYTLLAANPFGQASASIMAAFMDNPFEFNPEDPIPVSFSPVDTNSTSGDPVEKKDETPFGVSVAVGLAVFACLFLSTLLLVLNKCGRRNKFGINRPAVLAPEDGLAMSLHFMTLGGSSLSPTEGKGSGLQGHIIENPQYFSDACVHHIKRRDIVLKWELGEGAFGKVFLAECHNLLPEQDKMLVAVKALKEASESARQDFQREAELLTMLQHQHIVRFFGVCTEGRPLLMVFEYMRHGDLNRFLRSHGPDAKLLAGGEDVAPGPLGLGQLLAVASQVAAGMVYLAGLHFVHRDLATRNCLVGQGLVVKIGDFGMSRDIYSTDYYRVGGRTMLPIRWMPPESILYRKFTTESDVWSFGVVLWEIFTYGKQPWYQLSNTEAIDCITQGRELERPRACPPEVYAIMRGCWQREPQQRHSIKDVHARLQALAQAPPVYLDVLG
Fibroblast growth factor receptor 4 (Homo sapiens), sequence (P22455 22-802 limits assumed): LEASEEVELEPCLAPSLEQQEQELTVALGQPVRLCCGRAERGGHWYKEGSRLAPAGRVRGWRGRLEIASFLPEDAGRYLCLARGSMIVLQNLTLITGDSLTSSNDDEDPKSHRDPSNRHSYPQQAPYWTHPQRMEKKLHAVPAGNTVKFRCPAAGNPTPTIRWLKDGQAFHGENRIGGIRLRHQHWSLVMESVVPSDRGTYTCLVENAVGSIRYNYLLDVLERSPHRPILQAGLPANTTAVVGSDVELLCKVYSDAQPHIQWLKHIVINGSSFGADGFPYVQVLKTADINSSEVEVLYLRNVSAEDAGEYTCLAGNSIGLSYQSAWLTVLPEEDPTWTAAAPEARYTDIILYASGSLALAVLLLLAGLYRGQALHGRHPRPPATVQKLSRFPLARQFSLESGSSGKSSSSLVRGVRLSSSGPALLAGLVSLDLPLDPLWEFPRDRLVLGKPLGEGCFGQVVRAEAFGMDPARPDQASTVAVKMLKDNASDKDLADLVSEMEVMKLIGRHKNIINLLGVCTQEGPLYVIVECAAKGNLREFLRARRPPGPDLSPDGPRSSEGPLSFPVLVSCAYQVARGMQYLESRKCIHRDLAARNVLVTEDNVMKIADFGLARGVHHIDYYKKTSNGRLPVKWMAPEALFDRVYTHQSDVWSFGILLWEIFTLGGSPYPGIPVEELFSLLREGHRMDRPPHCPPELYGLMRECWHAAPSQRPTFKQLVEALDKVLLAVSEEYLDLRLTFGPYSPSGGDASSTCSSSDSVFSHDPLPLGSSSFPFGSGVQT

Take `O=C(N[C@@H](C1CC1)C(F)(F)F)c1cc(-c2cnn3cc(-c4ccc(F)cc4)cnc23)cs1`: the fold change (FC) in assay [1] was found to be 0. Moreover, the inhibition (commonly the change of the read-out against control, counted positive when it falls) in assay [2] is 0%.
As to `CNC(=O)c1ccccc1Oc1nc(Nc2cc(OC)c(OC)c(OC)c2)ncc1Br`, the inhibition in assay [3] turned out to be 11%. Further, the fold change (FC) in assay [4] came to 0.03.
Take `CC(C)[C@H](NC(=O)c1cc(-c2cnn3cc(-c4ccc(OCCN5CCCCC5)cc4)cnc23)cs1)C(F)(F)F`: the fold change (FC) in assay [5] worked out at 0. The inhibition in assay [6] and in assay [7] was 0% each time.
